From ChEMBL document CHEMBL5321272 (J Med Chem, 2023)
Calls of active or inactive are those of the source. No cut-off for these calls is given here.

Assays:
[1] = target: Receptor-type tyrosine-protein kinase FLT3 (Homo sapiens, UniProt P36888, D835Y)
Description: Inhibition of FLT3 D835Y mutant (unknown origin) using peptide substrate TK-S and ATP as substrate incubated for 1 hr by HTRF assay

[2] = target: Mast/stem cell growth factor receptor Kit (Homo sapiens, UniProt P10721); test: Inhibition of c-KIT (unknown origin) using peptide substrate TK-S and ATP as substrate incubated for 1 hr by HTRF assay; format: toxicity
MV4-11 = test: cells; conditions: Homo sapiens, MV4-11, 72 h
Description: Antiproliferative activity against human MV4-11 cells assessed as reduction in cell viability incubated for 72 hrs by CellTiter 96 Aqueous One Solution Cell Proliferation Assay

[3] = target: T1, Serine/threonine-protein kinase Chk1 (Homo sapiens, UniProt O14757)
T1 sequence (O14757 whole entry): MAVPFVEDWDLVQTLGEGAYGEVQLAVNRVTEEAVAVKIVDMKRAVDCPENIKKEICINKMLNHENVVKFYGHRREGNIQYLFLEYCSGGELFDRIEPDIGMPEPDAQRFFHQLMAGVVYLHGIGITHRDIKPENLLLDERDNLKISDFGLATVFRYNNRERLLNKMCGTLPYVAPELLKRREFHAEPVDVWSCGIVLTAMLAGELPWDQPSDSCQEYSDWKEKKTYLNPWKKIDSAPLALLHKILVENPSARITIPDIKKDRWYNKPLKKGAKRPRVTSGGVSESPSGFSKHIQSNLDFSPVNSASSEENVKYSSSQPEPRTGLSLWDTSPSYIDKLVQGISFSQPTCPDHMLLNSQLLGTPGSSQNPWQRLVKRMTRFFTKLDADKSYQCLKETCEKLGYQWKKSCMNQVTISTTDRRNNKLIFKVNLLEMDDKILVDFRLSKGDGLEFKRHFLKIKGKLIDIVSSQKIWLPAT
Description: Inhibition of CHK1 (unknown origin) using peptide substrate S1 and ATP as substrate incubated for 1 hr by HTRF assay

BaF3 [4] = test: Antiproliferative activity against mouse BaF3 cells harboring FLT3 D835F mutant assessed as reduction in cell viability incubated for 72 hrs by CellTiter 96 Aqueous One Solution Cell Proliferation Assay; format: functional, cell-based
[5] = Selectivity ratio of IC50 for inhibition of c-KIT (unknown origin) to IC50 for inhibition of FLT3 D835Y mutant (unknown origin)
BaF3 [6] = test: Antiproliferative activity against mouse BaF3 cells harboring FLT3 F691L mutant assessed as reduction in cell viability incubated for 72 hrs by CellTiter 96 Aqueous One Solution Cell Proliferation Assay; format: functional, cell-based
hERG (KCNH2) = hERG (KCNH2) (Homo sapiens, UniProt Q12809); test: Inhibition of hERG expressed in HEK293 cells at 20 uM by whole cell patch clamp analysis; format: toxicity, cell-based; conditions: HEK293 cells expressing hERG
BaF3 [7] = test: Antiproliferative activity against mouse BaF3 cells harboring FLT3 D835V mutant assessed as reduction in cell viability incubated for 72 hrs by CellTiter 96 Aqueous One Solution Cell Proliferation Assay; format: functional, cell-based
[8] = Cmax in ICR mouse at 10 mg/kg, po; format: ADME, organism-based; set-up: dose 10 mg/kg, route po; conditions: in vivo
[9] = Tmax in ICR mouse at 10 mg/kg, po; format: ADME, organism-based; conditions: in vivo
[10] = AUC (last) in ICR mouse at 10 mg/kg, po; format: ADME, organism-based; set-up: dose 10 mg/kg, route po; conditions: in vivo
[11] = Half life in ICR mouse at 10 mg/kg, po; format: ADME, organism-based; conditions: in vivo
[12] = MRT (infinity) in ICR mouse at 10 mg/kg, po; format: ADME, organism-based; conditions: in vivo
[13] = AUC (infinity) in ICR mouse at 10 mg/kg, po; format: ADME, organism-based; set-up: dose 10 mg/kg, route po; conditions: in vivo

Chain of hERG (KCNH2) (Q12809 whole entry): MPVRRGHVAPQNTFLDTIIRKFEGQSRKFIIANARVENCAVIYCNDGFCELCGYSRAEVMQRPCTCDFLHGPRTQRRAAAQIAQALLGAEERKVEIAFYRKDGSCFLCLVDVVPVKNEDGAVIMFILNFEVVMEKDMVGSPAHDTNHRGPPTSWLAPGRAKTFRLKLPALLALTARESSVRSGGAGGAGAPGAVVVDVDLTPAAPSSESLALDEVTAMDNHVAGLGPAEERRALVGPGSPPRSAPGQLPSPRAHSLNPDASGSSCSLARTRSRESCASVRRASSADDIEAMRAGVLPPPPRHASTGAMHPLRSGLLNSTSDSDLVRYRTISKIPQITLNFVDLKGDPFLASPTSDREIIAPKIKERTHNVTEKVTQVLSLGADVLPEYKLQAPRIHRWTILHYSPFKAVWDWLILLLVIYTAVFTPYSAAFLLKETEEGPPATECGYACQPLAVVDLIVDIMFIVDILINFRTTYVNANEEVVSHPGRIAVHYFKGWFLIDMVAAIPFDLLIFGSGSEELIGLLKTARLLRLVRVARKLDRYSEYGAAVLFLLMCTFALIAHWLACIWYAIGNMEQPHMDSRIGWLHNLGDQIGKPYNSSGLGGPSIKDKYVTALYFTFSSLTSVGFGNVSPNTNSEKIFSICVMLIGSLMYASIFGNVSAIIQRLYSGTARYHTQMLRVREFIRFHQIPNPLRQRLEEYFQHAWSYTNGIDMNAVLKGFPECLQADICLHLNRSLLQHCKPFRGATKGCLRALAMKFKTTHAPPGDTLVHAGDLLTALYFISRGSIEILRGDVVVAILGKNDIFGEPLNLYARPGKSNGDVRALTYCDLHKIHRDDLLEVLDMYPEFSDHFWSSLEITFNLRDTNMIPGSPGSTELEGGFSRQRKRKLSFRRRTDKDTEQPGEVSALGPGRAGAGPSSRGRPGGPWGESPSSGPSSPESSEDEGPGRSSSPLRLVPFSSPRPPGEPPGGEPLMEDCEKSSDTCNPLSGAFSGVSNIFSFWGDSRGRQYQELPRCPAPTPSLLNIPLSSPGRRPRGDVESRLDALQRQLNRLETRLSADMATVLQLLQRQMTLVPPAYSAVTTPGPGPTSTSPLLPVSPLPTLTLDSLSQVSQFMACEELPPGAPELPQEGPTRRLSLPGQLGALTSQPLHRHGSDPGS
Chain of Mast/stem cell growth factor receptor Kit (P10721 whole entry): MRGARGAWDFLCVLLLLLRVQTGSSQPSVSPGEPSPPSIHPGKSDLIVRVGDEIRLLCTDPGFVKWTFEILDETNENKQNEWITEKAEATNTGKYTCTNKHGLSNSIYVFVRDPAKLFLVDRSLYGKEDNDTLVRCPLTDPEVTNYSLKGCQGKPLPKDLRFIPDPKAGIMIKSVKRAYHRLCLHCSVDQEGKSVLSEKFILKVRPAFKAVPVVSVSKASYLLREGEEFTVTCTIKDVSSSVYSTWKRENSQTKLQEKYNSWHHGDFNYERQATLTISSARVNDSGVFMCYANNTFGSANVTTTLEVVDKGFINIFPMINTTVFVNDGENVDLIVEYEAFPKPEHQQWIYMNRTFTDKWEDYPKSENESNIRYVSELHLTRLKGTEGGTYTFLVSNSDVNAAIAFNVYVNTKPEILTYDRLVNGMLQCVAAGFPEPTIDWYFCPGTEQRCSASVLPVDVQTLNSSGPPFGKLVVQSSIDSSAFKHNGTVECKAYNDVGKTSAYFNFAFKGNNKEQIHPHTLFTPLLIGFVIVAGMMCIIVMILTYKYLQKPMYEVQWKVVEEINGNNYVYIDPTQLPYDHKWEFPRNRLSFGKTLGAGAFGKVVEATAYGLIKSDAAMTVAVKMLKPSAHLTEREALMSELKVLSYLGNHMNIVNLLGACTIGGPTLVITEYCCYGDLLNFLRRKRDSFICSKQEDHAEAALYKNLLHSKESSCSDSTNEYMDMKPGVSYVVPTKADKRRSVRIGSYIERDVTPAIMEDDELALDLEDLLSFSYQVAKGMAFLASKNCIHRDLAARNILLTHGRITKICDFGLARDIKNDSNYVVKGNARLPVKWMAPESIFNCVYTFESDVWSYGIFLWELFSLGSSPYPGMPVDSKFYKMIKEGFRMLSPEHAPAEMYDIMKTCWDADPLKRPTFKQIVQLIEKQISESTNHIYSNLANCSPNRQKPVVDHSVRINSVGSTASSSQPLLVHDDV

| SMILES | IC50 [1] | IC50 [2] | IC50 (MV4-11) | IC50 [3] | Activity (BaF3 [4]) | Ratio IC50 [5] | Activity (BaF3 [6]) | inhibition at 20 µM (hERG (KCNH2)) | Activity (BaF3 [7]) | Cmax [8] | Tmax [9] | AUC(0-t) [10] | half-life [11] | MRT inf [12] | AUC(0-inf) [13] |
| --- | --- | --- | --- | --- | --- | --- | --- | --- | --- | --- | --- | --- | --- | --- | --- |
| CC(C)(O)CC(=O)N1CCc2ccc(Nc3ncc(C(F)(F)F)c(N[C@H]4CC[C@@H](N)CC4)n3)cc2C1 | 2.11 nM | 3840 nM | 0.44 nM | 9.9 nM | Active | 1820 | Active | 43.9% | Active |  |  |  |  |  |  |
| CN1CCc2cc(Nc3ncc(C(F)(F)F)c(N[C@H]4CC[C@@H](N)CC4)n3)ccc2C1=O | 1.15 nM | 4770 nM | 1.2 nM | 11.7 nM | Active | 4150 | Active | 40.9% | Active |  |  |  |  |  |  |
| CC(C)(O)CC(=O)N1Cc2ccc(Nc3ncc(C(F)(F)F)c(N[C@H]4CC[C@@H](N)CC4)n3)cc2C1 | 1.12 nM | 2460 nM | 0.48 nM | 12.5 nM | Active | 2200 | Active | 19.3% | Active | 42.5 ng/mL | 1 h | 99.6 ng·h/mL | 48.6 min | 1.67 h | 104 ng·h/mL |
| CC(C)(O)C(=O)N1CCc2ccc(Nc3ncc(C(F)(F)F)c(N[C@H]4CC[C@@H](N)CC4)n3)cc2C1 | 2.21 nM | 8910 nM | 0.93 nM | 14 nM | Active | 4030 | Active | 28.1% | Active | 4.06 ng/mL | 0.25 h | 18.6 ng·h/mL | 545 min | 13.9 h | 57.5 ng·h/mL |
| CC(=O)N1Cc2ccc(Nc3ncc(C(F)(F)F)c(N[C@H]4CC[C@@H](N)CC4)n3)cc2C1 | 1.63 nM | 2240 nM | 0.34 nM | 13.1 nM | Active | 1370 | Active | 28.3% | Active | 32 ng/mL | 2 h | 97.8 ng·h/mL | 72.6 min | 2.29 h | 103 ng·h/mL |
| CC(C)(O)C(=O)N1Cc2ccc(Nc3ncc(C(F)(F)F)c(N[C@H]4CC[C@@H](N)CC4)n3)cc2C1 | 1.35 nM | 3090 nM | 0.5 nM | 13.5 nM | Active | 2290 | Active | 17.5% | Active | 263 ng/mL | 2 h | 577 ng·h/mL | 37.8 min | 1.92 h | 604 ng·h/mL |
| N[C@H]1CC[C@@H](Nc2nc(Nc3ccc4c(c3)CN(C(=O)CO)C4)ncc2C(F)(F)F)CC1 | 1.06 nM | 1990 nM | 0.14 nM | 7.6 nM | Active | 1870 | Active |  | Active |  |  |  |  |  |  |
| C[C@@H](O)C(=O)N1CCc2cc(Nc3ncc(C(F)(F)F)c(N[C@H]4CC[C@@H](N)CC4)n3)ccc2C1 | 1.25 nM | 1800 nM | 0.21 nM | 10.8 nM | Active | 1440 | Active | 14.6% | Active | 80.1 ng/mL | 2 h | 220 ng·h/mL | 57.6 min | 2.05 h | 226 ng·h/mL |
| N[C@H]1CC[C@@H](Nc2nc(Nc3ccc4c(c3)CCN(C(=O)CO)C4)ncc2C(F)(F)F)CC1 | 0.46 nM | 2030 nM | 0.28 nM | 17.6 nM | Active | 4420 | Active | 10.4% | Active | 162 ng/mL | 1 h | 340 ng·h/mL | 138 min | 3.43 h | 411 ng·h/mL |
| CC(=O)N1CCc2ccc(Nc3ncc(C(F)(F)F)c(N[C@H]4CC[C@@H](N)CC4)n3)cc2C1 | 1.24 nM | 4620 nM | 0.35 nM | 7.61 nM | Active | 3720 | Active | 43.4% | Active |  |  |  |  |  |  |
| CC(=O)N1CCc2cc(Nc3ncc(C(F)(F)F)c(N[C@H]4CC[C@@H](N)CC4)n3)ccc2C1 | 0.87 nM | 1080 nM | 0.07 nM | 7.6 nM | Active | 1240 | Active | 33.2% | Active | 555 ng/mL | 2 h | 1080 ng·h/mL | 48.6 min | 2.22 h | 1100 ng·h/mL |
